Assay results published in patent US5696112A, “Fused heterocyclic azepines as vasopressin antagonists” (American Cyanamid Company, priority 1995, dated 1997).

Legend:
[1] = target: T1, Rat Kidney Medullary V2 Receptors (vasopressin V2) (Rattus norvegicus, UniProt Q00788); assay: Binding Assay to Rat Kidney Medullary V2 Receptors; conditions: rat kidney medullary V2, [3H]Arg8-vasopressin
T1 construct: Medullary tissues from rat kidneys are dissected out; from tissue; host or cells: rat kidney medulla membranes
Description: Binding Assay to Rat Kidney Medullary V2 Receptors
Medullary tissues from rat kidneys are dissected out, cut into small pieces and let soak in a […] sodium chloride solution containing 1.0 mM EDTA with many changes of the liquid phase, until the solution is clear of blood. The tissue is homogenized in a 0.25M sucrose solution containing 1.0 mM EDTA and 0.1 mM PMSF using a Potter-Elvehjem homogenizer with a teflon pestle. The homogenate is filtered through several layers (4 layers) of cheese cloth. The filtrate is rehomogenized using a dounce homogenizer, with a tight fitting pestle. The final homogenate is contrifuged at 1500×g for 15 min. The nuclear pellet is discarded and the supernatant fluid recentrifuged at 40,000×g for 30 min. The resulting pellet formed contains a dark inner part with the exterior, slightly pink. The pink outer part is suspended in a small amount of 50.0 mMTris.HCl buffer, pH 7.4. The protein content is determined by the Lowry's method (Lowry et al, J. Biol. Chem., 1953). The membrane suspension is stored at -70° C., in 50.0 mMTris.HCl, containing 0.2% inactivated BSA and 0.1 mM PMSF in aliquots of 1.0 ml containing 10.0 mg protein per ml of suspension until use in subsequent binding experiments.
For binding experiments, the following is added in μl volume to wells of a 96 well format of a microtiter plate: 100.0 μl of 100.0 mM Tris.HCl buffer containing 0.2% heat inactivated BSA, 10.0 mM MgCl2 and a mixture of protease inhibitors: leupeptin, 1.0 mg %; aprotinin, 1.0 mg %; 1,10-phenanthroline, 2.0 mg %; trypsin inhibitor, 10.0 mg % and 0.1 mM PMSF, 20.0 μl of [^3 H]Arginine^8, vasopressin (S.A. 75.0 Ci/mmole) at 0.8 nM and the reaction initiated by the addition of 80.0 μl of tissue membranes (200.0 μg tissue protein). The plates are left undisturbed on the bench top for 120 min. to reach equilibrium. Non-specific binding is assessed in the presence of 1.0 μM of unlabeled ligand, added in 20 μl volume. For test compounds, these are solubilized in 50% dimethylsulfoxide (DMSO) and added in 20.0 μl volume to a final incubation volume of 200 μl. Upon completion of binding, the content of each well is filtered off, using a Brandel® cell Harvester (Gaithersburg, Md.). The radioactivity trapped on the filter disk by the ligand-receptor complex is assessed by liquid scintillation counting in a Packard LS Counter, with an efficiency of 65% for tritium. The data are analyzed for IC50 values by the LUNDON-2 program for competition (LUNDON SOFTWARE, OH).

[2] = target: T2, Rat Hepatic V1 Receptors (vasopressin V1) (Rattus norvegicus, UniProt P30560); assay: Binding Assay to Rat Hepatic V1 Receptors; conditions: rat hepatic V1, [3H]vasopressin
T2 construct: Rat liver plasma membranes expressing the vasopressin V1 receptor subtypes are isolated by sucrose density gradient; from tissue; host or cells: rat liver plasma membranes
Description: Binding Assay to Rat Hepatic V1 Receptors
Rat liver plasma membranes expressing the vasopressin V1 receptor subtypes are isolated by sucrose density gradient according to the method described by Lesko et al., (1973). These membranes are quickly suspended in 50.0 mMTris.HCl buffer, pH 7.4, containing 0.2% bovine serum albumin (BSA) and 0.1 mM phenylmethylsulfonylfluoride (PMSF) and kept frozen at -70° C. until used in subsequent binding experiments. For binding experiments, the following is added to the wells of a ninety-six well format microtiter plate: 100 μl of 100.0 mM Tris.HCl buffer containing 10.0 mM MgCl2, 0.2% heat inactivated BSA and a mixture of protease inhibitors: leupeptin, 1.0 mg %; aprotinin, 1.0 mg %, 1,10-phenanthroline,2.0 mg %; trypsin inhibitor, 10.0 mg % and 0.1 mM PMSF, 20.0 μl of [phenylalanyl-3,4,5-^3 H]vasopressin (S.A. 45.1 Ci/mmole) at 0.8 nM, and the reaction initiated by the addition of 80 μl of tissue membranes containing 20 μg of tissue protein. The plates are kept undisturbed on the bench top at room temperature for 120 min. to reach equilibrium. Nonspecific samples are assayed in the presence of 0.1 μM of the unlabeled antagonist phenylalanylvasopressin, added in 20.0 μl volume to a final incubation volume of 200 μl. Upon completion of binding, the content of each well is filtered off, using a Brandel® cell Harvester (Gaithersburg, Md.). The radioactivity trapped on the filter disk by the ligand-receptor complex is assessed by liquid scintillation counting in a Packard LS Counter, with an efficiency of 65% for tritium. The data are analyzed for IC50 values by the LUNDON-2 program for competition (LUNDON SOFTWARE, OH).

Vasopressin V2 = Vasopressin V2 Antagonist Activity in Conscious Hydrated Rats; type: in vivo, rat; conditions: AVP 0.4 μg/kg i.p.
Description: Vasopressin V2 Antagonist Activity in conscious Hydrated Rats Conscious hydrated rats are treated with compounds under study from 0.1 to 100 mg/kg orally or vehicle. Two to four rats are used for each compound. One hour later, arginine vasopressin (AVP, antidiuretic hormone, ADH) dissolved in peanut oil is administered at 0.4 μg/kg intraperitoneally. Two rats in each test would not receive arginine vasopressin but only the vehicle (peanut oil) to serve as water-loading control. Twenty minutes later each rat is given 30 mL/kg of deionized water orally by gavage and is placed individually in a metabolic cage equipped with a funnel and a graduated glass cylinder to collect urine for four hours. Urine volume is measured and osmolality analyzed by use of a Fiske One-Ten osmometer (Fiske Assoc., Norwood, Mass. USA). Urinary sodium, potassium, and chloride are analyzed by use of ion-specific electrodes in a Beckman E3 (Electrolyte 3) Analyzer. In the following results, […] and […] osmolality relative to AVP-control indicates activity.

oxytocin receptors = target: T3, oxytocin receptors (Rattus norvegicus, UniProt P70536); assay: Oxytocin Receptor Binding; set-up: species or system Sprague-Dawley rats
T3 construct: The uteri are dissected out, cleaned of fat and connective tissues; from tissue; host or cells: uterus membranes of DES-treated female Sprague-Dawley rats
T3 sequence (P70536 1-388): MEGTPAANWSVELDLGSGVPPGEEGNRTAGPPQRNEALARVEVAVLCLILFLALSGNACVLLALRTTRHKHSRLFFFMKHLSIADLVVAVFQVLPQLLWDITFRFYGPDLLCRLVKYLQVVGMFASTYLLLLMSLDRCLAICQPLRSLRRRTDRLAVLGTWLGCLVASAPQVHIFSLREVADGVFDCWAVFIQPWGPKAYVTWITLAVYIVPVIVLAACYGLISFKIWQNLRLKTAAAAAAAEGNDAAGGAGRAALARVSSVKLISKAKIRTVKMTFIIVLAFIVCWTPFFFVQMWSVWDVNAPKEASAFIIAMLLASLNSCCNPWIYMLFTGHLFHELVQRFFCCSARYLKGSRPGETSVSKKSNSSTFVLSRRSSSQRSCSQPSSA
Description: Oxytocin Receptor Binding
Female Sprague-Dawley rats weighing approximately 200-250 g are injected intramuscularly (i.m.) with 0.3 mg/kg of body weight of diethylstilbestrol (DES). The rats are sacrificed 18 hours later under pentobarbital anesthesia. The uteri are dissected out, cleaned of fat and connective tissues and rinsed in 50 ml of normal saline. The tissue pooled from six rats is homogenized in 50 ml of 0.01 mMTris.HCl, containing 0.5 mM dithiothreitol and 1.0 mM EDTA, adjusted to pH 7.4, using a polytron at setting 6 with three passes of 10 sec each. The homogenate is passed through two (2) layers of cheesecloth and the filtrate centrifuged at 1000×g for 10 min. The clear supernatant is removed and recentrifuged at 165,000×g for 30 min. The resulting pellet containing the oxytocin receptors is resuspended in 50.0 mM Tris.HCl containing 5.0 mM MgCl2 at pH 7.4, to give a protein concentration of 2.5 mg/ml of tissue suspension. This preparation is used in subsequent binding assays with [^3 H]Oxytocin.
Binding of 3,5-[^3 H]Oxytocin ([^3 H]OT) to its receptors is done in microtiter plates using [^3 H]OT, at various concentrations, in an assay buffer of 50.0 mM Tris.HCl, pH 7.4 and containing 5.0 mM MgCl2, and a mixture of protease inhibitors: BSA, 0.1 mg; aprotinin, 1.0 mg; 1,10-phenanthroline, 2.0 mg; […], 10.0 mg; and PMSF, 0.3 mg per 100 ml of buffer solution. Nonspecific binding is determined in the presence of 1.0 uM unlabeled OT. The binding reaction is terminated after 60 min., at 22° C., by rapid filtration through glass fiber filters using a Brandel® cell harvester (Biomedical Research and Development Laboratories, Inc., Gaithersburg, Md.). Competition experiments are conducted at equilibrium using 1.0 nM [^3 H]OT and varying the concentration of the displacing agents. The concentrations of agent displacing 50% of [^3 H]OT at its sites (IC50) are calculated by a computer assisted LUNDON-2 program (LUNDON SOFTWARE INC., Ohio, USA).

T1 sequence (Q00788 whole entry): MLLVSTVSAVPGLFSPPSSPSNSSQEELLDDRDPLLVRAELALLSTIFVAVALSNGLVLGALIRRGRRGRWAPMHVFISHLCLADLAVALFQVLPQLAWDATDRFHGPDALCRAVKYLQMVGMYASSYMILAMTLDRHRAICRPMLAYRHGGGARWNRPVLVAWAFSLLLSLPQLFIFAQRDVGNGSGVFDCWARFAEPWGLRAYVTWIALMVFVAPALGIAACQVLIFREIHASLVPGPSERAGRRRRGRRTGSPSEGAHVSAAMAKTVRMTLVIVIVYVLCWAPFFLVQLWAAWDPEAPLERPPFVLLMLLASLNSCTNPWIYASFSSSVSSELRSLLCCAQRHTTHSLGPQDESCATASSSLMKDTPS
T2 sequence (P30560 whole entry): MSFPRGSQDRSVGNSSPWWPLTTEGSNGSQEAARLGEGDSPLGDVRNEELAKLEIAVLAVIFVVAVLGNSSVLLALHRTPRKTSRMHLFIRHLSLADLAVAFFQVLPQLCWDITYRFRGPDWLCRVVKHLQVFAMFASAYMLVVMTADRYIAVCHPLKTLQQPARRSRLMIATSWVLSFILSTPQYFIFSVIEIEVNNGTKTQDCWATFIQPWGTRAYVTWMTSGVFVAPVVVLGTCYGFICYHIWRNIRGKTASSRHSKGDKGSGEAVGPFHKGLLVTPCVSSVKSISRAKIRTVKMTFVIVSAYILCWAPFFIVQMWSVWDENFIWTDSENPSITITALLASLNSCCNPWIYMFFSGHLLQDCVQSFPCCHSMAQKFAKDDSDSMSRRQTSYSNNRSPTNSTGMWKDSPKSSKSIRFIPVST

SMILES: O=C(Nc1ccc(C(=O)N2CCCCc3sccc32)cc1)c1ccc(Cl)c(Cl)c1 [Example 1, N-[4-[(5,6,7,8-Tetrahydro-4H-thieno[3,2-b]azepin-4-yl)carbonyl]phenyl]-3,4-dichlorobenzamide]
- IC50 [1]: 0.44 µM
- IC50 [2]: 1.65 µM

SMILES: Cc1ccccc1C(=O)Nc1ccc(C(=O)N2CCCCc3sccc32)cc1 [Example 3, N-[4-[(5,6,7,8-Tetrahydro-4H-thieno[3,2-b]azepin-4-yl)carbonyl]phenyl]-2-methylbenzamide]
- Osmolality (Vasopressin V2; 100 mg/kg P.O.): 1081 mOsm/kg
- Urine Volume (Vasopressin V2; 100 mg/kg P.O.): 10 ml/4 hours
- IC50 [1]: 0.023 µM
- IC50 [2]: 0.077 µM

SMILES: O=C(Nc1ccc(C(=O)N2CCCCc3sccc32)cc1)c1ccco1 [Example 4, N-[4-[(5,6,7,8-Tetrahydro-4H-thieno[3,2-b]azepin-4-yl)carbonyl]phenyl]2-furanecarboxamide]
- IC50 [1]: 1.8 µM
- IC50 [2]: 0.4 µM

SMILES: CC(C)(C)c1ccc(C(=O)Nc2ccc(C(=O)N3CCCCc4sccc43)cc2)cc1 [Example 5, N-[4-[(5,6,7,8-Tetrahydro-4H-thieno[3,2-b]azepin-4-yl)carbonyl]phenyl]4-tert-butylbenzamide]
- IC50 [1]: 21.4 µM

SMILES: CCCCc1ccc(C(=O)Nc2ccc(C(=O)N3CCCCc4sccc43)cc2)cc1 [Example 6, N-[4-[(5,6,7,8-Tetrahydro-4H-thieno[3,2-b]azepin-4-yl)carbonyl]phenyl]4-(n-butyl)benzamide]
- IC50 [1]: 3.4 µM
- IC50 [2]: 50 µM

SMILES: Cc1ccsc1C(=O)Nc1ccc(C(=O)N2CCCCc3sccc32)cc1 [Example 7, N-[4-[(5,6,7,8-Tetrahydro-4H-thieno[3,2-b]azepin-4-yl)carbonyl]phenyl]3-methyl-2-thiophenecarboxamide]
- Urine Volume (Vasopressin V2; 100 mg/kg P.O.): 6.2 ml/4 hours
- IC50 [1]: 0.138 µM
- IC50 [2]: 0.059 µM

SMILES: Cc1ccc(C)c(C(=O)Nc2ccc(C(=O)N3CCCCc4sccc43)cc2)c1 [Example 8, N-[4-[(5,6,7,8-Tetrahydro-4H-thieno[3,2-b]azepin-4-yl)carbonyl]phenyl]2,5-dimethylbenzamide]
- IC50 [1]: 0.12 µM
- IC50 [2]: 0.2 µM

SMILES: Cc1cccc(C(=O)Nc2ccc(C(=O)N3CCCCc4sccc43)cc2)c1C [Example 10, N-[4-[(5,6,7,8-Tetrahydro-4H-thieno[3,2-b]azepin-4-yl)carbonyl]phenyl]2,3-dimethylbenzamide]
- IC50 [1]: 0.052 µM
- IC50 [2]: 0.23 µM

SMILES: Cc1ccc(C(=O)Nc2ccc(C(=O)N3CCCCc4sccc43)cc2)c(C)c1 [Example 11, N-[4-[(5,6,7,8-Tetrahydro-4H-thieno[3,2-b]azepin-4-yl)carbonyl]phenyl]2,4-dimethylbenzamide]
- Osmolality (Vasopressin V2; 30 mg/kg P.O.): 1420 mOsm/kg
- Urine Volume (Vasopressin V2; 30 mg/kg P.O.): 5 ml/4 hours
- IC50 [1]: 0.06 µM
- IC50 [2]: 0.28 µM

SMILES: O=C(Cc1ccccc1)Nc1ccc(C(=O)N2CCCCc3sccc32)cc1 [Example 12, N-[4-[(5,6,7,8-tetrahydro-4H-thieno[3,2-b]azepin-4-yl)carbonyl]phenyl]benzeneacetamide]
- IC50 [1]: 0.036 µM
- IC50 [2]: 0.26 µM

SMILES: O=C(Nc1ccc(C(=O)N2CCCCc3sccc32)cc1)c1coc2c1C(=O)CCC2 [Example 179]
- IC50 [1]: 5.5 µM
- IC50 [2]: 1.3 µM

SMILES: O=C(Nc1ccc(C(=O)N2CCCCc3sccc32)cc1)c1ccc2[nH]ccc2c1 [Example 180]
- IC50 [1]: 0.37 µM
- IC50 [2]: 8 µM

SMILES: CCCCOc1ccc(C(=O)N2CCCCc3sccc32)cc1 [Example 233, 4-[4-(n-Butyloxy)benzoyl]-5,6,7,8-tetrahydro-4H-thieno[3,2-b]azepine]
- IC50 (oxytocin receptors; 1.0 nM [3H]oxytocin): 0.95 µM
- inhibition at 10 µM (oxytocin receptors; 10 μM): 93%
